Reference: patent US12054495B2, “Substituted macrocyclic compounds and related methods of treatment” (Alkermes, Inc., priority 2019, dated 2024)
Like-named read-outs stand apart in the source and are kept apart here.

Key:
[1] = target: T1, human orexin-2 receptor (OX2R) (Homo sapiens, UniProt O43614); assay: Human OX2R IP1 assay; type: cell-based; conditions: T-Rex CHO cells stably overexpressing human OX2R, IP1 accumulation, 1 hr at 37 degrees C; mean EC50; ∧ = racemic mixture
T1 construct: expressed in transfected cells
T1 sequence (O43614 1-444): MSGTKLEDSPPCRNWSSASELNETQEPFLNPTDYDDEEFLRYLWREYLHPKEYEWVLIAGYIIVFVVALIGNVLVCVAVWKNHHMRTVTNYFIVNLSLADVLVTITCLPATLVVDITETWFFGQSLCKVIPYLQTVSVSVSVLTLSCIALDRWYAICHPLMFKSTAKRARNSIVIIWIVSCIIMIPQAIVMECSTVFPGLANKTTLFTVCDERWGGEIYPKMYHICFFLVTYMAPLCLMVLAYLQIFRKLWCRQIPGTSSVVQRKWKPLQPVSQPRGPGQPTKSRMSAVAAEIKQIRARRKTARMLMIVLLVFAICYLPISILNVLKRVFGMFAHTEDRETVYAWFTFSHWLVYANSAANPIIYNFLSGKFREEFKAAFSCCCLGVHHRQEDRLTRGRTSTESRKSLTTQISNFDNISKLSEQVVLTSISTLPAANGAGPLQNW
Procedure, shortened: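 Doxycycline-induced T-Rex CHO cells stably expressing human OX2R treated with compound 1 hr at 37 °C in LiCl-containing buffer, pH 7.4. IP1 accumulation quantified by HTRF competitive immunoassay; EC50 reported as mean ± S.E.M.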

MDR1 = assay: MDCK-MDR1 permeability assay; type: in vitro ADME; conditions: dog; for Papp A→B at 2 h, 3 μM: MDCK-MDR1, MDCK-MDR1 cells, apical to basolateral, 3 μM test compound, 2 hours at 37 degrees C; for efflux ratio at 2 h, 3 μM: MDCK-MDR1, Papp (basolateral to apical) divided by Papp (apical to basolateral), MDCK-MDR1 cells, read-out: Efflux ratio (ER)
Procedure, shortened: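 Bidirectional transport across MDCK-MDR1 monolayers with test compound at 3 μM in HBSS, Lucifer Yellow 100 μM co-dosed as integrity marker; 2 h at 37 °C, donor and receiver quantified by LC-MS/MS. Papp = dQ/dt × 1/(A×C0); efflux ratio = Papp(B→A)/Papp(A→B), ER>2 taken as active transport.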

Sprague-Dawley rats = assay: Assessment of wake promotion in Sprague-Dawley rats (EEG/EMG); type: in vivo; conditions: Rattus norvegicus, 3 mpk, male Sprague-Dawley rats, dosed at ZT5, 6-hour post-dose period, read-out: Mean cortical activation time (% vehicle treatment)
Experimental: Wake promotion was assessed using electroencephalography (EEG) and electromyography (EMG) in adult male Sprague-Dawley rats (350-600 g). All rats (Charles River Laboratories, Raleigh, NC, USA) were intraperitoneally implanted with telemetry devices (F50-EEE, Data Sciences International Inc., M/N, USA) under isoflurane anesthesia. For EEG, stainless steel screws were implanted over frontal cortex and parietal cortex, and reference screws were placed over cerebellum. Additionally, an electrode was placed in neck muscle for EMG. Rats were given carprofen post-surgery and underwent a 7 to 10-day recovery period. Rats habituated to the experimental room for 7 days and were maintained on a 12-hour light-dark cycle.
EEG and EMG data were recorded using the DSI telemetry system and Ponemah software (Data Sciences International Inc., MN, USA). Sleep-wake stages were scored both manually and with Somnivore, a supervised machine learning software platform, in 10 second epocs. Records were visually inspected as needed post-processing.
All test compounds were dissolved in 5% DMSO and suspended in 95% saline with 0.5% methylcellulose and 0.5% tween. […] Unless otherwise indicated, all compounds were dosed orally. Recordings for each rat were initiated immediately after dosing and lasted for 6 hours post-dose.
Two key endpoints include wakefulness time and cortical activation time. Wakefulness time is derived from the sleep-wake stage analysis. Cortical activation time is based on the duration in which frontal gamma oscillatory activity (30-100 Hz), a key feature of wakefulness, was elevated relative to a pre-treatment baseline. Mean cortical activation time was computed relative to vehicle treatment for the 6-hour post-dose period.

EC50 [1]	Papp A→B at 2 h, 3 μM (MDR1)	efflux ratio at 2 h, 3 μM (MDR1)	Compound	response vs control in vivo at 3 mg/kg (Sprague-Dawley rats; PO)	response vs control in vivo at 3 mg/kg (Sprague-Dawley rats; SC)
< 100 nM	0.72 ×10⁻⁶ cm/s	36	CS(=O)(=O)N[C@@H]1CCCN2C(=O)COc3cccc(F)c3[C@H]3CC[C@H](CC3)OC[C@H]12 (racemic) [Compound 49]	340%	–
< 100 nM	5.9 ×10⁻⁶ cm/s	4	COC(=O)N1CCC[C@H](NS(C)(=O)=O)[C@@H]1CO[C@H]1CC[C@@H](c2ccccc2)CC1 [methyl (2R,3S)-3-((methylsulfonyl)amino)-2-(((cis-4-phenylcyclohexyl)oxy)methyl)-piperidine-1-carboxylate, reference compound]	–	119%
